Results taken from patent US9845321B2, “1,3-dihydro-2H-benzimidazol-2-one derivatives substituted with heterocycles as respiratory syncytial virus antiviral agents” (JANSSEN SCIENCES IRELAND UC, priority 2012, dated 2017).
Values belong to the molecule of their own block, whether it stands above or below them.

Columns and labels:
[1] = system: rgRSV224 virus; experiment: Antiviral activity: rgRSV224 (GFP-expressing RSV) replication in HeLa cells, GFP expression measured three days post-virus exposure; format: cell-based; details: human respiratory syncytial virus, 72 h, read-out: WT activity pEC50 (converted)
Protocol: (§1) Black 96-well clear-bottom microtiter plates (Corning, Amsterdam, The Netherlands) were filled in duplicate using a customized robot system with serial 4-fold dilutions of compound in a final volume of 50 μl culture medium [RPMI medium without phenol red, 10% FBS, 0.04% gentamycin (50 mg/ml) and 0.5% DMSO]. Then, 100 μl of a HeLa cell suspension (5×10^4 cells/ml) in culture medium was added to each well followed by the addition of 50 μl rgRSV224 (MOI=0.02) virus in culture medium using a multidrop dispenser (Thermo Scientific, Erembodegem, Belgium). rgRSV224 virus is an engineered virus that includes an additional GFP gene (Hallak et al, 2000) and was in-licensed from the NIH (Bethesda, Md., USA). Medium, virus- and mock-infected controls were included in each test. Cells were incubated at 37° C. in a 5% CO2 atmosphere. Three days post-virus exposure, viral replication was quantified by measuring GFP expression in the cells by a MSM laser microscope (Tibotec, Beerse, Belgium). The EC50 was defined as the 50% inhibitory concentration for GFP expression. In parallel, compounds were incubated for three days in a set of white 96-well microtitier plates (Corning) and the cytotoxicity of compounds in HeLa cells was determined by measuring the ATP content of the cells using the ATPlite kit (PerkinElmer, Zaventem, Belgium) according to the manufacturer's instructions. The CC50 was defined as the 50% concentration for cytotoxicity.

[2] = in vitro; format: cell-based; details: human
Protocol: as §1

Compound: N#CCCCn1c(Cn2c(=O)n(-c3ccncn3)c3ccncc32)cc2cc(Cl)ccc21 [Compound P24, 4-(5-chloro-2-((2-oxo-1-(pyrimidin-4-yl)-1H-imidazo[4,5-c]pyridin-3(2H)-yl)methyl)-1H-indol-1-yl)butanenitrile]
- EC50 [1]: 10 nM
- CC50 at 3 days [2]: > 50100 nM
- melting point: 229.17 °C

Compound: N#CCCCn1c(Cn2c(=O)n(-c3nccs3)c3ccc(F)cc32)cc2cc(Cl)ccc21 [Compound P27, 4-(5-chloro-2-((6-fluoro-2-oxo-3-(thiazol-2-yl)-2,3-dihydro-1H-benzo[d]imidazol-1-yl)methyl)-1H-indol-1-yl)butanenitrile]
- EC50 [1]: 31.6 nM
- CC50 at 3 days [2]: > 100000 nM
- melting point: 238.29 °C

Compound: CC(=O)N1CC(n2c(=O)n(Cc3cc4cc(Cl)ccc4n3CCCS(C)(=O)=O)c3cnccc32)C1 [Compound P6, 1-(1-acetylazetidin-3-yl)-3-((5-chloro-1-(3-(methylsulfonyl)propyl)-1H-indol-2-yl)methyl)-1H-imidazo[4,5-c]pyridin-2(3H)-one]
- EC50 [1]: 3.98 nM
- CC50 at 3 days [2]: > 25100 nM
- melting point: 252 °C

Compound: COc1ccc(-n2c(=O)n(Cc3cc4cc(Cl)ccc4n3CCCC#N)c3cnccc32)c(C)c1 [Compound P20, 4-(5-chloro-2-((1-(4-methoxy-2-methylphenyl)-2-oxo-1H-imidazo[4,5-c]pyridin-3(2H)-yl)methyl)-1H-indol-1-yl)butanenitrile]
- EC50 [1]: 0.398 nM
- CC50 at 3 days [2]: > 100000 nM
- melting point: 172.59 °C

- melting point: 238 °C
Compound: O=c1n(Cc2nc3nc(Cl)ccc3n2CCCCF)c2cnccc2n1-c1nccs1

Compound: N#CCCCn1c(Cn2c(=O)n(-c3ccc(Cl)cc3)c3ccncc32)cc2cc(Cl)ccc21 [Compound P39, 4-(5-chloro-2-((1-(4-chlorophenyl)-2-oxo-1H-imidazo[4,5-c]pyridin-3(2H)-yl)methyl)-1H-indol-1-yl)butanenitrile]
- EC50 [1]: 3.98 nM
- CC50 at 3 days [2]: 25100 nM
- melting point: 210.8 °C

Compound: CC(C)(C)OC(=O)N1CC(n2c(=O)n(Cc3cc4cc(Cl)ccc4n3CCCS(C)(=O)=O)c3cnccc32)C1 [Compound P1, tert-butyl-3-(3-((5-chloro-1-(3-(methylsulfonyl)propyl)-1H-indol-2-yl)methyl)-2-oxo-2,3-dihydro-1H-imidazo[4,5-c]pyridin-1-yl)azetidine-1-carboxylate]
- EC50 [1]: 5.01 nM
- CC50 at 3 days [2]: 50100 nM
- melting point: 195 °C

Compound: O=c1n(Cc2cc3cc(Cl)ccc3n2CCCCF)c2cnccc2n1-c1ccc(Cl)cc1 [Compound P34, 3-((5-chloro-1-(4-fluorobutyl)-1H-indol-2-yl)methyl)-1-(4-chlorophenyl)-1H-imidazo[4,5-c]pyridin-2(3H)-one]
- EC50 [1]: 31.6 nM
- CC50 at 3 days [2]: > 100000 nM
- melting point: 168 °C

Compound: COc1ccc(-n2c(=O)n(Cc3cc4cc(Cl)ccc4n3CCCS(C)(=O)=O)c3cnccc32)cc1 [Compound P35, 3-((5-chloro-1-(3-(methylsulfonyl)propyl)-1H-indol-2-yl)methyl)-1-(4-methoxyphenyl)-1H-imidazo[4,5-c]pyridin-2(3H)-one]
- EC50 [1]: 0.316 nM
- CC50 at 3 days [2]: 31600 nM
- melting point: 215 °C

Compound: CS(=O)(=O)CCCn1c(Cn2c(=O)n(C3CN(S(C)(=O)=O)C3)c3ccncc32)cc2cc(Cl)ccc21 [Compound P5, 3-((5-chloro-1-(3-(methylsulfonyl)propyl)-1H-indol-2-yl)methyl)-1-(1-(methylsulfonyl)azetidin-3-yl)-1H-imidazo[4,5-c]pyridin-2(3H)-one]
- EC50 [1]: 1.58 nM
- CC50 at 3 days [2]: 100000 nM
- melting point: 240 °C

Compound: CC(C)(C)n1c(=O)n(Cc2cc3cc(Cl)ccc3n2CCCS(C)(=O)=O)c2cnccc21 [Compound P8, 1-tert-butyl-3-((5-chloro-1-(3-(methylsulfonyl)propyl)-1H-indol-2-yl)methyl)-1H-imidazo[4,5-c]pyridin-2(3H)-one]
- EC50 [1]: 2.51 nM
- CC50 at 3 days [2]: 39800 nM
- melting point: 226 °C

Compound: COc1ccc(-n2c(=O)n(Cc3cc4cc(Cl)ccc4n3CCCCF)c3cnccc32)cc1 [Compound P32, 3-((5-chloro-1-(4-fluorobutyl)-1H-indol-2-yl)methyl)-1-(4-methoxy-phenyl)-1H-imidazo[4,5-c]pyridin-2(3H)-one]
- EC50 [1]: 3.98 nM
- CC50 at 3 days [2]: 79400 nM
- melting point: 163 °C

Compound: CC(C)CCn1c(Cn2c(=O)n(-c3ccncc3F)c3ccncc32)nc2nc(Cl)ccc21 [Compound P26, 3-((5-chloro-1-isopentyl-1H-imidazo[4,5-b]pyridin-2-yl)methyl)-1-(3-fluoropyridin-4-yl)-1H-imidazo[4,5-c]pyridin-2(3H)-one]
- EC50 [1]: 25.1 nM
- CC50 at 3 days [2]: > 100000 nM
- melting point: 123.79 °C

Compound: N#CCCCn1c(Cn2c(=O)n(-c3ncco3)c3ccncc32)cc2cc(Cl)ccc21 [Compound P37, 4-(5-chloro-2-((1-(oxazol-2-yl)-2-oxo-1H-imidazo[4,5-c]pyridin-3(2H)-yl)methyl)-1H-indol-1-yl)butanenitrile]
- EC50 [1]: 1.58 nM
- CC50 at 3 days [2]: > 100000 nM
- melting point: 234 °C

Compound: O=c1n(Cc2cc3cc(Cl)ccc3n2CCCCF)c2cnccc2n1-c1nccs1 [Compound P11, 3-((5-chloro-1-(4-fluorobutyl)-1H-indol-2-yl)methyl)-1-(thiazol-2-yl)-1H-imidazo[4,5-c]pyridin-2(3H)-one]
- EC50 [1]: 12.6 nM
- CC50 at 3 days [2]: > 25100 nM
- melting point: 240 °C

Compound: Cn1ccc(-n2c(=O)n(Cc3cc4cc(Cl)ccc4n3CCCC#N)c3cnccc32)n1 [Compound P36, 4-(5-chloro-2-((1-(1-methyl-1H-pyrazol-3-yl)-2-oxo-1H-imidazo[4,5-c]pyridin-3(2H)-yl)methyl)-1H-indol-1-yl)butanenitrile]
- EC50 [1]: 1.58 nM
- CC50 at 3 days [2]: 63100 nM
- melting point: 244 °C

Compound: CS(=O)(=O)c1ccc(-n2c(=O)n(Cc3cc4cc(Cl)ccc4n3CCCC#N)c3cnccc32)cc1 [Compound P41, 4-(5-chloro-2-((1-(4-(methylsulfonyl)phenyl)-2-oxo-1H-imidazo[4,5-c]pyridin-3(2H)-yl)methyl)-1H-indol-1-yl)butanenitrile]
- EC50 [1]: 0.2 nM
- CC50 at 3 days [2]: > 100000 nM

Compound: N#CCCCn1c(Cn2c(=O)n(-c3ncccn3)c3ccncc32)cc2cc(Cl)ccc21 [Compound P21, 4-(5-chloro-2-((2-oxo-1-(pyrimidin-2-yl)-1H-imidazo[4,5-c]pyridin-3(2H)-yl)methyl)-1H-indol-1-yl)butanenitrile]
- EC50 [1]: 6.31 nM
- CC50 at 3 days [2]: > 100000 nM

Compound: Cc1ccc(-n2c(=O)n(Cc3cc4cc(Cl)ccc4n3CCCC#N)c3cnccc32)cc1 [Compound P46, 4-(5-chloro-2-((2-oxo-1-p-tolyl-1H-imidazo[4,5-c]pyridin-3(2H)-yl)methyl)-1H-indol-1-yl)butanenitrile]
- EC50 [1]: 1.26 nM
- CC50 at 3 days [2]: > 100000 nM

Compound: COc1ccc(-n2c(=O)n(Cc3cc4cc(Cl)ccc4n3CCCC#N)c3cnccc32)c(F)c1 [Compound P45, 4-(5-chloro-2-((1-(2-fluoro-4-methoxyphenyl)-2-oxo-1H-imidazo[4,5-c]pyridin-3(2H)-yl)methyl)-1H-indol-1-yl)butanenitrile]
- EC50 [1]: 1 nM
- CC50 at 3 days [2]: 15800 nM
